Assays:
BCDIN3D [1] = target: T1, BCDIN3D (Homo sapiens, UniProt Q7Z5W3); assay: BCDIN3D IC50 RFMS (RapidFire) assay with mini-helix; format: biochemical; settings: mini-helix 0.2 μM and SAM 6 μM as substrates, 25 nM enzyme, 1 hr at 37° C.
T1 sequence (Q7Z5W3 1-292): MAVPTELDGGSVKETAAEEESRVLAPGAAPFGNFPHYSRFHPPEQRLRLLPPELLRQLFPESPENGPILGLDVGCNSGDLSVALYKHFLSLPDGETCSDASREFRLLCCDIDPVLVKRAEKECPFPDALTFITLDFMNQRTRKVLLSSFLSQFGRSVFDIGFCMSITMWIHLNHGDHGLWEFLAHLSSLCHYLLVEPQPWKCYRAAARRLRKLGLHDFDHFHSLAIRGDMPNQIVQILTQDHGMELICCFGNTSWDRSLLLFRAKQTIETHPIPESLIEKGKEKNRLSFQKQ
Procedure, shortened: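 25 nM enzyme preincubated 10 min at room temperature with compound (1% DMSO) in 25 mM Tris pH 8.0, 10 mM DTT, 1 mM EDTA, 0.03% BSA. Reaction started with 0.2 μM mini-helix plus 6 μM SAM, run 1 h at 37 °C, quenched with TCA; SAH product quantified by RapidFire MS against isotopic SAH standards.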

BCDIN3D [2] = target: T1, BCDIN3D; assay: BCDIN3D InCellPulse thermal stability assay in transfected A549 cells; format: cell-based; settings: A549 cells transiently transfected with ePL-BCDIN3D, 1 h pre-incubation, heat shock 58° C. 15 min
Procedure, shortened: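 A549 cells transiently expressing BCDIN3D N-terminally fused to ePL ProLabel tag, 1500 cells/well, pre-incubated 1 h at 37 °C with compound (0.6% DMSO). Heat shock 58 °C for 15 min; remaining soluble fusion detected by split β-galactosidase complementation luminescence.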

SMILES	IC50 (BCDIN3D [1]) [µM]	IC50 (BCDIN3D [2]) [µM]
CC(C)Oc1nc(NCC(N)c2ccccc2)nc2c1cnn2C (stereo not drawn) [Compound 6.04, N′-(1-methyl-4-propan-2-yloxypyrazolo[3,4-d]pyrimidin-6-yl)-1-phenylethane-1,2-diamine]	2.62	4.15
Cn1ncc2c(OC(C)(C)C)nc(NCC(N)c3ccccc3)nc21 (stereo not drawn) [Compound 6.05, N′-(4-tert-butoxy-1-methyl-pyrazolo[3,4-d]pyrimidin-6-yl)-1-phenyl-ethane-1,2-diamine]	4.16	5.14
Cn1ncc2c(NC3CC3)nc(NC[C@H](N)c3ccccc3)nc21 [Compound 7.04, N6-[(2R)-2-amino-2-phenyl-ethyl]-N4-cyclopropyl-1-methyl-pyrazolo[3,4-d]pyrimidine-4,6-diamine]	3.91	2.97
Cn1ncc2c(Nc3ccc(F)cc3)nc(NC[C@H](N)c3ccccc3)nc21 [Compound 7.05, N6-[(2R)-2-amino-2-phenyl-ethyl]-N4-(4-fluorophenyl)-1-methyl-pyrazolo[3,4-d]pyrimidine-4,6-diamine]	0.241	0.169
Cn1ncc2c(Nc3ccc(C(F)(F)F)nc3)nc(NC[C@H](N)c3ccccc3)nc21 [Compound 7.08, N6-[(2R)-2-amino-2-phenyl-ethyl]-1-methyl-N4-[6-(trifluoromethyl)-3-pyridyl]pyrazolo[3,4-d]pyrimidine-4,6-diamine]	0.0334	0.223
Cn1ncc2c(Nc3ccc(C(F)(F)F)nc3)nc(NC[C@@H](N)c3ccccc3)nc21 [Compound 7.09, N6-[(2S)-2-amino-2-phenyl-ethyl]-1-methyl-N4-[6-(trifluoromethyl)-3-pyridyl]pyrazolo[3,4-d]pyrimidine-4,6-diamine]	0.209	0.414
Cc1ccc(CNc2nc(NC[C@@H](N)CF)nc3c2cnn3C)cc1Cl [Compound 7.14, 6-N-[(2R)-2-amino-3-fluoropropyl]-4-N-[(3-chloro-4-methylphenyl)methyl]-1-methylpyrazolo[3,4-d]pyrimidine-4,6-diamine]	5.65	6.32
Cn1ncc2c(NC(C)(C)C)nc(NC[C@H](N)c3ccc(F)cc3)nc21 [Compound 7.18, N6-[(2R)-2-amino-2-(4-fluorophenyl)ethyl]-N4-tert-butyl-1-methyl-1H-pyrazolo[3,4-d]pyrimidine-4,6-diamine]	0.33	0.41

Further molecules by falling IC50 (BCDIN3D [1]), results first:

IC50 (BCDIN3D [1]) [µM]	IC50 (BCDIN3D [2]) [µM]	SMILES
5.62	4.12	Cn1ncc2c(NCC(F)(F)F)nc(NC[C@@H](N)c3ccccc3)nc21 [Compound 7.07, N6-[(2S)-2-amino-2-phenyl-ethyl]-1-methyl-N4-(2,2,2-trifluoroethyl)pyrazolo[3,4-d]pyrimidine-4,6-diamine]
2.19	2.93	Cn1ncc2c(Nc3ccc(F)cc3)nc(NC[C@@H](N)c3ccccc3)nc21 [Compound 7.06, N6-[(2S)-2-amino-2-phenyl-ethyl]-N4-(4-fluorophenyl)-1-methyl-pyrazolo[3,4-d]pyrimidine-4,6-diamine]
0.998	0.899	Cc1ccc(CNc2nc(N[C@H]3CCCC[C@H]3N)nc3c2cnn3C)cc1Cl [Compound 7.02, 6-N-[(1S,2R)-2-aminocyclohexyl]-4-N-[(3-chloro-4-methylphenyl)methyl]-1-methylpyrazolo[3,4-d]pyrimidine-4,6-diamine]
0.181	4.18	Cn1ncc2c(NC(C)(C)C)nc(NC[C@@H](N)c3ccccc3F)nc21 [Compound 7.11, N6-[(2S)-2-amino-2-(2-fluorophenyl)ethyl]-N4-tert-butyl-1-methyl-pyrazolo[3,4-d]pyrimidine-4,6-diamine]

— patent US20220370453A1 (Storm Therapeutics Ltd, priority 2019, published 2022)
